Data published in US20240191177A1, “GROWTH PROMOTER FOR LACTIC ACID COCCI” (KIRIN HOLDINGS KABUSHIKI KAISHA, priority 2002, published 2024).

Legend:
Format in all cases: cell-based
[1] = system: Lactococcus lactis subsp. lactis JCM5805 strain; experiment: Growth promoting effect, MRS medium, anaerobic cultivation (OD600)
Experimental: A Lactococcus lactis subsp. lactis JCM5805 strain was used as the lactic acid coccus.
The bacteria were counted by measuring the OD600 (turbidity) of the medium using an absorbance meter (Biochrom GeneQuant 1300).
Measured values were expressed as mean±standard error. One-way analysis of variance was followed by Tukey's test, and cases where p<0.05 relative to the control group were evaluated as having a significant difference.

[2] = system: Lactococcus lactis subsp. lactis JCM5805 strain; experiment: Growth promoting effect, MRS medium, aerobic cultivation (OD600); conditions: 0.5 to 2.0% by mass, 30° C. 24 hours, FIG. 2
Experimental: A Lactococcus lactis subsp. lactis JCM5805 strain was used as the lactic acid coccus. The medium used was MRS medium. […] Next, the bacterial cells were inoculated (seeded) so that the concentration of the bacterial cells was 0.1% (v/v) with respect to 10 ml of the medium, and the medium inoculated with the bacterial cells was placed in an automatic cultivation searching device OT-201 (Oriental Instruments: sometimes referred to as “bioplotter” herein), and cultivated at 30° ° C. for 24 hours (stirring intensity condition: Medium). The bacteria were counted by measuring the OD600 (turbidity) of the medium using an absorbance meter (Biochrom GeneQuant 1300). Measured values were expressed as mean±standard error. One-way analysis of variance was followed by Tukey's test, and cases where p<0.05 relative to the control group were evaluated as having a significant difference.

[3] = system: Lactococcus lactis subsp. lactis JCM5805 strain; experiment: Growth promoting effect, GM17 medium, anaerobic cultivation (OD600); conditions: 0.5 to 2% by mass, 30° C. 24 hours, FIG. 3
Excerpt: (§1) The lactic acid coccus described in Example 1, item (1), A was used.
The medium used was a medium obtained by adding 20 g/L of glucose to M17 medium (Difco M17 Broth, BD; the composition thereof is indicated in Table 2; the same applies hereinafter in the present specification) (sometimes referred to as “GM17 medium” herein). […] Next, the bacterial cells were inoculated (seeded) in a 15-ml conical tube (FALCON) so that the concentration of the bacterial cells was 0.1% (v/v) with respect to 10 ml of the prepared medium, and cultivated at 30° ° C. for 24 hours in an incubator (TOKYO […] CO., LTD.) (static cultivation).
(§2) Measurement was performed in a similar manner as described in Example 1, item (1), C.
(§3) Analysis was performed in a similar manner as described in Example 1, item (1), D.

[4] = system: Lactococcus lactis subsp. lactis JCM5805 strain; experiment: Growth promoting effect, GM17 medium, aerobic cultivation (OD600); conditions: 0.5 to 2% by mass, 30° C. 24 hours, FIG. 4
Experimental: as §1
The medium used was GM17 medium. […] Next, the bacterial cells were inoculated (seeded) so that the concentration of the bacterial cells was 0.1% (v/v) with respect to 10 ml of the prepared medium, and the medium inoculated with the bacterial cells was placed in an automatic cultivation searching device OT-201 (Oriental Instruments; sometimes referred to as “bioplotter” herein), and cultivated at 30° C. for 24 hours (stirring intensity condition: Medium).
as §2, §3

Pediococcus acidilactici = experiment: Growth promoting effect on lactic acid cocci of the genus Pediococcus, MRS medium, anaerobic (Example 6); conditions: strain JCM8797, MRS medium, αKG 0.1 to 4 or 1 to 4% by mass, malic acid 0.1 to 2 or 1 to 2% by mass, FIG. 8
Experimental: (§4) The lactic acid cocci of the genus Pediococcus indicated in Table 5 were used as the bacterial cells.
(§5) Cultivation was performed in a similar manner as described in Example 1, item (1), B (i), except that α-ketoglutaric acid (concentrations shown in FIG. 8A (0.1 to 4% by mass) and FIG. 8C (1 to 4% by mass)) and malic acid (concentrations shown in FIG. 8B (0.1 to 2% by mass) and FIG. 8D (1 to 2% by mass)) were each added, as the dicarboxylic acids, to the medium (anaerobic cultivation).
as §2, §3

Pediococcus damnosus = experiment: as above; conditions: strain JCM5886, MRS medium, αKG 0.1 to 4 or 1 to 4% by mass, malic acid 0.1 to 2 or 1 to 2% by mass, FIG. 8
Experimental: as §4, §5, §2, §3

[5] = 0.01 to 4.0% by mass, 30° C. 24 hours, FIG. 1A/1C

Structure (SMILES)	growth of the lactic acid coccus (OD600) as compared with the control ([1]; citric acid 0.25 to 1% by mass, FIG. 7)	growth of the lactic acid coccus (OD600) as compared with the control [1, 5]	growth of the lactic acid coccus (OD600) as compared with the control [2]	growth of the lactic acid coccus (OD600) as compared with the control [3]	growth of the lactic acid coccus (OD600) as compared with the control [4]	growth of the lactic acid cocci belonging to the genus Pediococcus (OD600) as compared with the control (Pediococcus acidilactici)	growth of the lactic acid cocci belonging to the genus Pediococcus (OD600) as compared with the control (Pediococcus damnosus)
O=C(O)CC(O)(CC(=O)O)C(=O)O [citric acid, reference compound]	significantly promoted	–	–	–	–	–	–
O=C(O)CC(O)C(=O)O (stereo not shown) [malic acid]	–	significantly promoted in a concentration-dependent manner	significantly promoted in a concentration-dependent manner	significantly promoted	promoted in a concentration-dependent manner	significantly promoted in a concentration-dependent manner	significantly promoted in a concentration-dependent manner
O=C(O)CCC(=O)C(=O)O [αKG, α-ketoglutaric acid]	–	significantly promoted in a concentration-dependent manner	significantly promoted in a concentration-dependent manner	significantly promoted	promoted in a concentration-dependent manner	significantly promoted in a concentration-dependent manner	significantly promoted in a concentration-dependent manner
